# Key:
# [1] = tested on: Citrullus vulgaris urease (CVU); test: Inhibition of CVU urease activity after 1 h incubation with inhibitor (phenol red assay); assay type: biochemical; details: for Plateau (% of Initial): residual activity at plateau from the fit, 1 h at 37 °C; for IC50: CVU incubated 1 h at 37 °C with inhibitor, 2 mM urea, pH 6.8
# Procedure: (§1) The specific ureolytic activity was assayed spectrophotometrically at 37 °C in a Fluostar Omega (BMG LABTECH Inc, Cary, NC, USA) spectrometer. The reaction was monitoring by the increase of ammonia concentration following the absorbance at 558 nm by The Phenol Red Assay, taking similar considerations as the one described elsewhere. The standard urease test consisted in 0.3 mL of reaction buffer: 0.5 mM MES, 0.016 mM phenol red, and 50 mM urea, at pH 6.8. All assays were initiated by the addition of the enzyme (≈0.6 ng/mL). Initial velocity rates were determined from the initial linear portion of the reaction course-times. Saturation kinetics experiments were performed under the same conditions, except that different concentrations of urea were used (0.5 to 50 mM), and data were fitted to Michaelis-Menten model (Equation (1)). All experiments presented were reproduced at least three times.
# To evaluate the saturation of CVU with inhibitors, enzyme was incubated for one hour at 37 °C with different concentrations of inhibitors in the standard reaction mixture, the reactions were started by the addition of urea to a final concentration of 2 mM, followed by the measurement of the residual activity. Percentages of residual activity were plotted against inhibitor concentration. Since two types of behavior were observed, two different equations were used to fit the data. In one case, we observed a trend that produced a full loss of activity (Equation (3)), and in the other case a partial inhibition is observed, meaning that at enzyme saturation activity value is non-zero (Equation (4)).
# Equation (3): Full-Inhibition Saturation Kinetics, (3) residual activity (%) = A0 IC50h/IC50h+[I]^h where h, is the Hill coefficient; IC50 is the apparent inhibition constant; [I], is the inhibitor concentration. Residual activity and A0 is the same as in Equation (2).
# Equation (4): Partially-Inhibition Saturation Kinetics, (4) residual activity (%)= A0 IC50h/IC50h+[I]^h+plateau where parameters and variables are same as in Equation (3), with the difference that a plateau is included.
# Inhibition of CVU by Aldrithiol (2,2′-dipyridyl disulphide, here in after called DPS for dipyridine sulfide), captopril ((S)-1-(3-Mercapto-2-methyl-1-oxopropyl)-L-proline), bithionol (2,2′-Sulfanediylbis(4,6-dichlorophenol)) and quercetin were performed in a similar manner as for inhibition experiments with DSF. These inhibitors were purchased from Sigma-Aldrich (Toluca, Mexico). Inhibition kinetics data were fitted to the indicated equation. The protection of the activity by a given inhibitor (called I2), at a concentration equal to the IC50 value, over the inhibition produced by DPS was monitored measuring changes in initial velocity and plotting the percentage of inhibition for each treatment and expressed as mean ± SEM. Student t test was used to estimate statistical significance. Measurements of variance were performed using a one-way ANOVA. Differences were considered significant when p was less than 0.05. All experiments were performed at least three times, and in all cases the SEM justifies the accuracy of the values, except in the case of inhibition kinetics of bithionol and quercetin in which SEM is higher than 10% of the estimated value.
# [2] = tested on: Citrullus vulgaris urease (CVU); test: Time courses of inactivation of CVU pre-incubated with DSF; assay type: biochemical; details: 37 °C
# Procedure: as §1
# To evaluate the time and concentration-dependence of the inhibition of urease activity, the initial rates of urea hydrolysis were measured in the standard reaction mixture in the presence of DSF (tetraethylthiuram disulphide), (C2H5)2N(C=S)S–S(S=C)N(C2H5)2, during different incubation periods. DSF was purchased from Sigma-Aldrich (Toluca, Mexico). In these experiments urease reactions were started by the addition of urea to a final concentration of 2 mM. The residual activity in percentage of the initial was plotted against the time of incubation and fitted to an exponential decay equation with a plateau (Equation (2)).
# Equation (2): Enzyme inactivation, (2) residual activity = (A0−plateau)(e^−kt)+plateau, where the residual activity is the observed activity upon the inhibition; A0, is the activity observed in the absence of the inhibitor; the plateau, is the value of Y minimum; k, is the observed one phase kinetic constant, and t is the time of incubation. Activity was transformed to percentage, where activity in the absence of DSF is 100%.
# [3] = tested on: Citrullus vulgaris urease (CVU); test: Inhibition pattern: urea saturation kinetics of CVU at fixed/variable DSF concentrations; assay type: biochemical
# Procedure: as §1, with “three times. For the inhibition pattern urea saturation kinetics experiments were performed at fixed/variable concentrations of DSF and data were globally fitted to Equation (5).” for “three times.”
# [4] = molecular target: Citrullus vulgaris urease (CVU); test: Binding equilibrium by intrinsic fluorescence quenching; details: 1 h after addition, 37 °C, read-out: DSF dissociation constant (Kd)
# Procedure: The binding of DSF was monitored after apparent equilibrium by measuring the intrinsic tryptophan fluorescence intensity changes at 37 °C using a spectrometer (Fluostar Omega, BMG). CVU was excited at 290 nm, and fluorescence intensity was recorded at 340 nm after an hour of incubation at 37 °C in the absence or presence of different concentrations of DSF. In order to discard solvent fluorescent changes, a control experiment was performed in which the different volumes of solvent (same as in the titration volumes used in ligand additions) were added to urease. Fluorescence intensity changes were plotted against the DSF concentrations and fitted to […]. Equation (6): Fluorescence binding saturation, (6) ΔIF = Bmax [DSF]/Kd+[DSF] where ΔIF, is the change in fluorescence intensity at 340 nm; Bmax, is the maximum ΔIF and corresponds to the maximum binding; [DSF], is the disulfiram concentration and Kd, is the dissociation constant.
SMILES,Plateau (% of Initial) [1],apparent half-life time of inactivation ([2]; 50 µM DSF) [min],kobs of inactivation ([2]; 50 µM DSF) [min⁻¹],"plateau, % of the initial velocity ([2]; 50 µM DSF)",apparent half-life time of inactivation ([2]; 80 µM DSF) [min],kobs of inactivation ([2]; 80 µM DSF) [min⁻¹],"plateau, % of the initial velocity ([2]; 80 µM DSF)",Inhibition mechanism ([3]; Lineweaver–Burk plots of the inhibition pattern),"Ki ([3]; global fit to non-competitive inhibition, Equation (5), read-out: Inhibition constant (Ki)) [µM]",Kd [4] [µM],IC50 [1] [µM]
"CCN(CC)C(=S)SSC(=S)N(CC)CC [DSF, tetraethylthiuram disulphide]",0.00 % of Initial,13.80,0.050 ± 0.007,63.60% ± 1.40,7.50,0.092 ± 0.024,53.48% ± 3.05,non-competitive inhibition mechanism,67.6 ± 7,54.9 ± 3.9,
"CC(CS)C(=O)N1CCC[C@H]1C(=O)O (stereo partly drawn) [Captopril, (S)-1-(3-Mercapto-2-methyl-1-oxopropyl)-L-proline]",0.00 % of Initial,,,,,,,,,,524 ± 39.6
"O=c1c(O)c(-c2ccc(O)c(O)c2)oc2cc(O)cc(O)c12 [Quercetin, quercetin]",58.86 ± 1.52 % of Initial,,,,,,,,,,155 ± 10.2
"Oc1c(Cl)cc(Cl)cc1Sc1cc(Cl)cc(Cl)c1O [Bithionol, 2,2′-Sulfanediylbis(4,6-dichlorophenol)]",34.53 ± 18.23 % of Initial,,,,,,,,,,376 ± 120

# — article PMC6274061, “Inhibition of Urease by Disulfiram, an FDA-Approved Thiol Reagent Used in Humans” (Molecules, 2016)
